Reference: patent publication US8728797B2, “Yeast membrane protein expression system and its application in drug screening” (priority 2001, dated 2014)
In brackets after ≈: the same amount, converted by molar mass.

Key:
[1] = tested on: S. cerevisiae AD1-8u^− hyper-expressing CDR1-2; assay: MIC, CDR1 allele 2 hyper-expressed; assay type: cell-based; conditions: Saccharomyces cerevisiae; hyper-expression of CDR1-2 allele
Protocol: (§1) The MICs of antifungal agents for S. cerevisiae cells were determined by a microdilution test based on the macrodilution reference method of the National Committee for Clinical Laboratory Standards. Cells (10 μl cell suspension, 2×10^5 cells/ml) were inoculated into 90 μl CSM-URA, buffered with 10 mM 2-(N-morpholino)ethanesulfonic acid (MES) and 18 mM N-2-hydroxyethylpiperazine-N′-2-ethanesulfonic acid (HEPES), pH 7.0 and containing 0.67% (w/v) yeast nitrogen base (YNB) in microtitre plate wells. For the uracil-requiring strain AD1-8u^− the medium was supplemented with 0.02% (w/v) uridine. The wells contained, in […], doubling dilutions of antifungal agents (final concentrations: fluconazole, 40-0.078 μg/ml; itraconazole and ketoconazole, 8-0.016 μg/ml). The microtitre plates were incubated at 30° C. for 48 h with shaking and then the growth of cells in individual wells (OD590) was measured with a microplate reader (EL 340, Bio-Tek, Winooski, Vt.). The MIC80 was the lowest concentration of drug that inhibited growth yield by at least 80% compared to a no-drug control.

[2] = tested on: S. cerevisiae AD1-8 sec6-4/CDR1; assay: MIC microdilution test, sec6-4 host with CDR1; assay type: cell-based; conditions: Saccharomyces cerevisiae, 30° C.
Protocol: as §1

[3] = tested on: selected respiratory competent construct expressing Cdr1p; assay: MIC, corrected Cdr1p construct; assay type: cell-based, S. cerevisiae; conditions: Saccharomyces cerevisiae; construct corrected with linear PCR fragment
Protocol: as §1

[4] = tested on: AD1002 cells; assay: Glucose-dependent rhodamine 6G efflux; assay type: cell-based, S. cerevisiae; conditions: fluconazole 10 μM in preincubation and all later steps; 10 min after glucose
Protocol: The efflux of rhodamine 6G at 30° C. was followed by direct measurement of fluorescence in cell supernatants following glucose (2 mM) addition to cell suspensions. […] The indicated concentrations of KN20 were added to AD124567 cells preloaded with rhodamine 6G, the cells were preincubated for 5 minutes at 30° C. and glucose added to commence rhodamine efflux.
A previously described method (Kolaczkowski, M et al. 1996) was adapted to measure rhodamine 6G (Sigma) efflux from whole cells. Yeast cells from exponentially growing cultures in YEPD (OD600 nm=0.5) were collected by centrifugation (3,000×g, 5 min, 20° C.) and washed three times with water. The washed cells were resuspended at a concentration of 0.5×10^6 to 1.0×10^7 cells per ml in HEPES-NaOH (50 mM, pH 7.0) containing 5 mM 2-deoxyglucose and 10 μM rhodamine 6G. In some experiments fluconazole (10 μM) was also added. Cell suspensions were incubated at 30° C. with shaking for 90 min to allow rhodamine accumulation under glucose starvation conditions. The starved cells were washed twice in 50 mM HEPES-NaOH pH 7.0, and portions (400 μl) incubated at 30° C. for 5 min before addition of glucose (final concentration 2 mM) to initiate rhodamine efflux. […] The rhodamine 6G fluorescence of samples was measured using a Cary Eclipse spectrofluorimeter (Varian Inc, Victora Australia). […]

[5] = tested on: AD-pABC3; assay: MIC in liquid microdilution assay, AD-pABC3 control; assay type: cell-based, S. cerevisiae; conditions: Saccharomyces cerevisiae; AD-pABC3 negative control strain
Protocol: as §1

[6] = tested on: AD1002; assay: Disk drug susceptibility assay of chemosensitisation to fluconazole; assay type: cell-based, S. cerevisiae; conditions: 5 μg/ml fluconazole, 12 nanomole peptide on disk
Protocol: (A) Checkerboard drug susceptibility assay of AD1002. This assay was conducted as described in Materials and methods in the presence of the indicated concentrations of fluconazole and KN20. (B) Disk drug susceptibility assay of AD1002. This assay was conducted, as described in Materials and methods for Example 4, in the absence or presence of 5 μg/ml fluconazole, with (1) KN0 (12 nanomole), (2) KN20 (12 nanomole) or (0) control amounts of DMSO applied to the disks. (C) Checkerboard drug susceptibility assay of ATCC 10261. This assay was conducted, as described in Material and methods for Example 4, in the presence of the indicated concentrations of fluconazole and KN20. D indicates cell death as measured by a failure to recover any colony forming units when samples from microtitre plate wells were cultured on solid YPD medium.
Drug susceptibility was measured using disk assays on CSM-URA plates (containing 1.5% w/v agar). Plates were seeded with yeast cells suspended in top agar (5 ml, 10^5 cells/ml). For the uracil-dependent parental strain, agar was supplemented with 0.02% uridine. Five microliters of drug solution or solvent control were spotted onto sterile Whatman paper disks on the top agar. […]

[7] = tested on: AD124567 cells; assay: Glucose-dependent rhodamine 6G efflux; assay type: cell-based, S. cerevisiae; conditions: 40 μM KN20, 5 minute preincubation
Protocol: De-energised cells were pre-loaded with rhodamine 6G, as described in Materials and methods for Example 4. The efflux of rhodamine 6G at 30° C. was followed by direct measurement of fluorescence in cell supernatants following glucose (2 mM) addition to cell suspensions. (A) The kinetics of energy-dependent rhodamine 6G efflux in strains AD1002 (▪) and AD1-8u^− (●). The fluorescence in supernatants of AD1002 cells in the absence of added glucose is also shown (◯). (B) The effect of KN20 concentration on the energy-dependent efflux of rhodamine 6G from AD124567 cells. The indicated concentrations of KN20 were added to AD124567 cells preloaded with rhodamine 6G, the cells were preincubated for 5 minutes at 30° C. and glucose added to commence rhodamine efflux.
A previously described method (Kolaczkowski, M et al. 1996) was adapted to measure rhodamine 6G (Sigma) efflux from whole cells. Yeast cells from exponentially growing cultures in YEPD (OD600 nm=0.5) were collected by centrifugation (3,000×g, 5 min, 20° C.) and washed three times with water. The washed cells were resuspended at a concentration of 0.5×10^6 to 1.0×10^7 cells per ml in HEPES-NaOH (50 mM, pH 7.0) containing 5 mM 2-deoxyglucose and 10 μM rhodamine 6G. […] The rhodamine 6G fluorescence of samples was measured using a Cary Eclipse spectrofluorimeter (Varian Inc, Victora Australia). […]

Compound | MIC [1] | MIC80 [2] | MIC [3] | reduction in the concentration of released rhodamine 6G [4] | MIC [5] | chemosensitisation to fluconazole in disk assay [6] | inhibition of rhodamine 6G efflux [7]
OC(Cn1cncn1)(Cn1cncn1)c1ccc(F)cc1F [fluconazole] | 80 µg/mL (≈ 261 µM) | 80 µg/mL (≈ 261 µM) | 400 µg/mL (≈ 1310 µM) | 32% | 0.5 µg/mL (≈ 1.63 µM) |  | 
D-octapeptide NH2-Asn-Trp-Trp-Lys-Val-Arg-Arg-Arg-CONH2 with a single 4-methoxy-2,3,6-trimethylbenzenesulphonyl (Mtr) substituent on one tryptophan sidechain; Pdr5p inhibitor [KN20] |  |  |  |  |  | chemosensitises | 50%
